Test systems include HCT-15 colon; A549 NSCLC; OVCAR-8 ovarian; HOP-62 NSCLC; COLO 205 colon; SK-MEL-2 melanoma; 786-0 renal; U251 CNS.
What all share (test): NCI tumour cell line growth inhibition, 48 h

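Tested at 5 concentrations; 48 h exposure; 96-well plates; endpoints linearly interpolated, else capped at highest concentration. Here, GI50 denotes the concentration required for 50% inhibition of growth. At the TGI there is no net growth.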

As to `CC1=C(O)c2cn(C)cc2C(=O)C1=O`, the TGI in the assay with HCT-15 colon, in the assay on A549 NSCLC, with OVCAR-8 ovarian, with HOP-62 NSCLC, in the assay on COLO 205 colon and in the assay with SK-MEL-2 melanoma was above 100 µM in each case. For the same molecule, the TGI in the assay with 786-0 renal and in the assay on U251 CNS was above 100 µM each time.

In the case of `N.N.NCCCCCN.O=C([O-])CCl.O=C([O-])CCl.O=C([O-])CCl.O=C([O-])CCl.[Pt+4].[Pt+4]`, the GI50 was 31.8 µM in the assay with HCT-15 colon; 3.03 µM in the assay with A549 NSCLC; 14 µM in the assay on OVCAR-8 ovarian; 1.36 µM in the assay with HOP-62 NSCLC; 1.78 µM in the assay on COLO 205 colon; 35.8 µM in the assay on SK-MEL-2 melanoma. Moreover, the GI50 was 3.36 µM in the assay with 786-0 renal and 5.06 µM in the assay with U251 CNS. For the same molecule, the TGI in the assay with HCT-15 colon is above 100 µM; in the assay with A549 NSCLC it was 30 µM; with OVCAR-8 ovarian, above 100 µM; with HOP-62 NSCLC, 12.5 µM; in the assay with COLO 205 colon it was 8.45 µM; with SK-MEL-2 melanoma, above 100 µM. Moreover, the values for the TGI in the assay with 786-0 renal and in the assay with U251 CNS were 24.4 µM and 40.6 µM, respectively.

With `O=c1cc(-c2ccccc2)oc2ccc(OC/C(=N/O)c3ccccc3)cc12`, the GI50 is 2.19 µM in the assay on HCT-15 colon; 3 µM with A549 NSCLC; 3.82 µM in the assay with OVCAR-8 ovarian; 9.62 µM with HOP-62 NSCLC; 1.89 µM with COLO 205 colon; 29.6 µM in the assay on SK-MEL-2 melanoma. The figures for the GI50 in the assay with 786-0 renal and with U251 CNS were 8.92 µM and 2.35 µM, respectively. Also, the TGI is above 50 µM in the assay with HCT-15 colon; above 50 µM in the assay with A549 NSCLC; above 50 µM with OVCAR-8 ovarian; above 50 µM with HOP-62 NSCLC; 25.3 µM with COLO 205 colon; above 50 µM with SK-MEL-2 melanoma. Also, the TGI in the assay with 786-0 renal and in the assay on U251 CNS was above 50 µM throughout.

As for `COc1ccccc1NC(=O)C1=C(C)NC(C)=C(C(=O)Nc2ccccc2OC)C1C1=CC=COC1`, the TGI in the assay on HCT-15 colon was 15 µM; with A549 NSCLC it was above 100 µM; with OVCAR-8 ovarian, 40.4 µM; with HOP-62 NSCLC, above 100 µM; in the assay on COLO 205 colon, above 100 µM; with 786-0 renal it was above 100 µM. In the assay with U251 CNS, this molecule returned a TGI of 77.1 µM.

Consider `Oc1ccc([Te]CCNCC[Te]c2ccc(O)cc2)cc1`, for which the TGI is 16.6 µM in the assay on A549 NSCLC; 48 µM with OVCAR-8 ovarian; 46.5 µM in the assay with HOP-62 NSCLC; 22.4 µM in the assay on COLO 205 colon; above 100 µM in the assay with 786-0 renal; 25.6 µM in the assay on U251 CNS.

Regarding `COC(=O)CCC(NC(=S)N/N=C/c1ccccn1)C(=O)OC` (stereo not given), the TGI with HCT-15 colon, in the assay on A549 NSCLC, in the assay on OVCAR-8 ovarian, in the assay on HOP-62 NSCLC, in the assay with COLO 205 colon and in the assay on SK-MEL-2 melanoma was above 100 µM throughout. Also, the TGI with 786-0 renal and in the assay with U251 CNS was above 100 µM throughout.

Consider `CC1=Nc2ccccc2NC(c2ccoc2)C1` (stereo not given), for which the TGI with HCT-15 colon, with A549 NSCLC, with OVCAR-8 ovarian, in the assay with HOP-62 NSCLC, in the assay on COLO 205 colon and with SK-MEL-2 melanoma was above 100 µM throughout. Besides, the TGI with 786-0 renal and in the assay with U251 CNS was above 100 µM each time.

On to `COc1c(C)cc(O)cc1C=O`, for which the TGI in the assay with HCT-15 colon, in the assay on A549 NSCLC, in the assay with OVCAR-8 ovarian, in the assay with HOP-62 NSCLC, with COLO 205 colon and in the assay on SK-MEL-2 melanoma was above 100 µM each time. Further, the TGI in the assay on 786-0 renal and with U251 CNS was above 100 µM in each case.

In the case of `COC(=O)C(=O)C(C(=O)C(=O)Nc1cccc(C(C)=O)c1)c1nc2ccc([N+](=O)[O-])cc2[nH]c1=O` (stereo not given), the TGI in the assay on HCT-15 colon, with A549 NSCLC, in the assay with OVCAR-8 ovarian, with HOP-62 NSCLC, in the assay on COLO 205 colon and with SK-MEL-2 melanoma was above 100 µM throughout. Further, the TGI with 786-0 renal and in the assay on U251 CNS was above 100 µM in each case.

Regarding `O=C1CC(c2c(-c3ccccc3)[nH]c3ccccc23)C(=O)N1` (stereo not given), the TGI with HCT-15 colon, in the assay on A549 NSCLC, in the assay with OVCAR-8 ovarian, in the assay with HOP-62 NSCLC, in the assay on SK-MEL-2 melanoma and with 786-0 renal was above 100 µM each time. The molecule further had a TGI in the assay on U251 CNS above 100 µM.

On to `c1ccc([CH2][Sn]([CH2]c2ccccc2)([O]c2cccc3cccnc23)[O]c2cccc3cccnc23)cc1`, for which the GI50 is 0.394 µM in the assay on HCT-15 colon; 0.245 µM with A549 NSCLC; 0.515 µM in the assay with OVCAR-8 ovarian; 0.207 µM in the assay with HOP-62 NSCLC; 0.194 µM in the assay with COLO 205 colon; 0.511 µM in the assay on SK-MEL-2 melanoma. The values for the GI50 with 786-0 renal and with U251 CNS were 0.155 µM and 0.218 µM, respectively. The TGI in the assay with HCT-15 colon stood at 1.37 µM; with A549 NSCLC, 0.69 µM; in the assay on OVCAR-8 ovarian it was 1.59 µM; in the assay with HOP-62 NSCLC, 0.515 µM; with COLO 205 colon it was 0.477 µM; with SK-MEL-2 melanoma it was 1.77 µM. The TGI in the assay with 786-0 renal is 0.385 µM; in the assay on U251 CNS, 0.463 µM.

As to `COC(=O)C1=Cc2cc(OC)c(OC)c(OC)c2[C@H](c2cc(OC)c(OC)c(OC)c2)C1C(=O)OC` (stereo not given in full), the TGI in the assay with HCT-15 colon, with A549 NSCLC, in the assay on OVCAR-8 ovarian, in the assay with HOP-62 NSCLC, in the assay on COLO 205 colon and in the assay with 786-0 renal was above 100 µM in each case. Besides, the TGI with U251 CNS is above 100 µM.

For the molecule `CC(=O)Nc1ccc(/C=c2\sc3nnc(CCC(=O)Nc4ccccc4Cl)n3c2=O)cc1`, the TGI was above 100 µM in the assay on HCT-15 colon; above 100 µM in the assay on A549 NSCLC; above 10 µM in the assay with OVCAR-8 ovarian; above 100 µM with HOP-62 NSCLC; 81.9 µM in the assay with SK-MEL-2 melanoma; 48.9 µM in the assay with 786-0 renal. This molecule also returned a TGI in the assay on U251 CNS of 31.8 µM.

With `COc1ccc(C(CCC(C)=O)C(=O)O)cc1OC` (stereo not given), the TGI in the assay on HCT-15 colon, with A549 NSCLC, with OVCAR-8 ovarian, in the assay with HOP-62 NSCLC, with COLO 205 colon and in the assay on SK-MEL-2 melanoma was above 100 µM each time. The TGI in the assay with 786-0 renal and in the assay with U251 CNS was above 100 µM each time.

Source of the values: PubChem BioAssay (NCI).
